ChEMBL document CHEMBL5226388, “Terpenoids from the Sponge Sarcotragus sp. Collected in the South China Sea” (J Nat Prod, 2023)

Legend:
[1] = Cytotoxicity against human L02 cells assessed as reduction in cell growth by MTT assay; format: toxicity, cell-based
MDA-MB-231 = test: Cytotoxicity against human MDA-MB-231 cells assessed as reduction in cell growth by MTT assay; format: functional, cell-based
K562 = test: Cytotoxicity against human K562 cells assessed as reduction in cell growth by MTT assay; format: functional, cell-based
H69AR = test: Cytotoxicity against human NCI-H69AR cells assessed as reduction in cell growth by MTT assay; format: functional, cell-based
ASPC1 = test: Cytotoxicity against human ASPC1 cells assessed as reduction in cell growth by MTT assay; format: functional, cell-based

SMILES	IC50 [1]	IC50 (MDA-MB-231)	IC50 (K562)	IC50 (H69AR)	IC50 (ASPC1)
CC(=O)O[C@@H]1OC(=O)C=C1/C=C/[C@]1(C)C2=CC[C@H]3C(C)(C)CCC[C@]3(C)[C@H]2CC[C@@H]1C	7.21 µM	23.2 µM	4.38 µM	16.3 µM	
CO[C@H](C[C@]1(C)C2=CC[C@H]3C(C)(C)CCC[C@]3(C)[C@H]2CC[C@@H]1C)C1=CC(=O)O[C@H]1O	4.62 µM	16 µM	7.95 µM	5.67 µM	4.71 µM
C[C@H]1CC[C@H]2C(=CC[C@H]3C(C)(C)CCC[C@]23C)[C@@]1(C)/C=C/C1=CC(=O)OC1O (stereo partly drawn)	13.5 µM	> 30 µM	11.6 µM	25.7 µM	22.4 µM
C[C@@H]1CC[C@@H]2C(=CC[C@@H]3C(C)(C)CCC[C@@]23C)[C@]1(C)C[C@H](O)C1=CC(=O)OC1	> 30 µM	> 30 µM	> 30 µM	> 30 µM	> 30 µM
C=C(C)CCCC1=CCC[C@H](C)[C@]1(C)CCC1=CC(=O)OC1O (stereo partly drawn)	13.5 µM	> 30 µM	15.1 µM	21.1 µM	> 30 µM
CC(=O)O[C@H]1OC(=O)C=C1/C=C/[C@]1(C)C2=CC[C@H]3C(C)(C)CCC[C@]3(C)[C@H]2CC[C@@H]1C	6.8 µM	29 µM	2.91 µM	14.9 µM	
CC(C)=CCC[C@@]1(C)CCC=C2[C@@H]1CC[C@H](C)[C@]2(C)CCC1=CC(=O)OC1	> 30 µM	> 30 µM	> 30 µM	> 30 µM	> 30 µM
CC1=CCC[C@@H](C)[C@@]1(C)CC/C(C)=C/CCC1=CC(=O)OC1	> 30 µM	> 30 µM	> 30 µM	> 30 µM	> 30 µM
CC(=O)O[C@@H]1C[C@@H]2[C@@]3(C)CCCC(C)(C)[C@@H]3CC[C@@]2(C)[C@@H]2C[C@@H](O)C3=C([C@H](O)OC3=O)[C@@]12C	24.1 µM	> 30 µM	7.19 µM	27.5 µM	17.9 µM
C[C@@H]1CC[C@@H]2C(=CC[C@H]3C(C)(C)CCC[C@@]23C)[C@]1(C)C[C@@H](O)C1=CC(=O)OC1	11.6 µM	> 30 µM	12.6 µM	> 30 µM	> 30 µM
COc1cccc2c1C(=O)c1c(O)c3c(c(O)c1C2=O)C[C@@](O)(C(=O)CO)C[C@@H]3O[C@H]1C[C@H](N)[C@H](O)[C@H](C)O1 [DOXORUBICIN]	< 1 µM	< 1 µM	< 1 µM	< 1 µM	< 1 µM
